Patent publication US11578074B2, “Nitrogenous heterocyclic compound, preparation method, intermediate, composition, and application” (SHANGHAI PHARMACEUTICALS HOLDING CO., LTD., priority 2017, dated 2023)
Where two headings read alike, the source gives them in different places.

Tests used:
ErbB2 kinase = biological target: T1, ErbB2 kinase (Homo sapiens, UniProt P04626); experiment: EGFR/ErbB2 enzymatic experiment (HTRF kinEASE-TK), ErbB2; assay type: biochemical; settings: ErbB2 kinase 0.06 ng/μL, ATP 4 μM; read-out: Kinase IC50 (nM) in vitro ErbB2
T1 construct: The final concentration of ErbB2 kinase was 0.06 ng/μL

EGFR kinase = EGFR kinase (Homo sapiens, UniProt P00533); experiment: EGFR/ErbB2 enzymatic experiment (HTRF kinEASE-TK), EGFR; assay type: biochemical; settings: EGFR kinase 0.06 units/μL, ATP 1.65 μM; read-out: Kinase IC50 (nM) in vitro EGFR
[1] = system: BT-474 (human breast cancer cell); experiment: In vitro proliferation inhibition assay of cell lines (CellTiter-Glo), BT-474; assay type: cell-based; settings: BT-474 cells, 72 hours
Summary of the method: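 Cells were exposed to nine compound concentrations in duplicate for 72 h at 37 °C and 5% CO2. Viability was read with CellTiter-Glo reagent after equilibration at room temperature.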

CYP3A4 = biological target: T2, CYP3A4 (Homo sapiens, UniProt P08684); experiment: Direct inhibition (DI) of CYP3A4 in human liver microsomes; assay type: in vitro ADME; settings: human liver microsomes 0.2 mg/mL, 10 μM compound
T2 construct: A system of 100 μL human liver microsomes; from tissue; host or cells: human liver microsomes
Summary of the method: (§1)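 Pooled human liver microsomes (0.2 mg/mL) with 1 mM NADPH and 10 μM test compound were incubated for 20 min with a mixed probe-substrate cocktail (midazolam 10 μM, testosterone 100 μM, dextromethorphan 10 μM, diclofenac 20 μM, phenacetin 100 μM, mephenytoin 100 μM). Relative enzyme activity came from metabolite formation versus DMSO control.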

CYP2D6 = biological target: T3, CYP2D6 (Homo sapiens, UniProt P10635); experiment: Direct inhibition (DI) of CYP2D6 in human liver microsomes; assay type: in vitro ADME; settings: probe Dextromethorphan, human liver microsomes 0.2 mg/mL, 10 μM compound, read-out: Direct inhibition (DI) 2D6 (Dextromethorphan)
T3 construct: A system of 100 μL human liver microsomes; from tissue; host or cells: human liver microsomes
Summary of the method: as §1

CYP2C9 = biological target: T4, CYP2C9 (Homo sapiens, UniProt P11712); experiment: Direct inhibition (DI) of CYP2C9 in human liver microsomes; assay type: in vitro ADME; settings: probe Diclofenac, human liver microsomes 0.2 mg/mL, 10 μM compound, read-out: Direct inhibition (DI) 2C9 (Diclofenac)
T4 construct: A system of 100 μL human liver microsomes; from tissue; host or cells: human liver microsomes
Summary of the method: as §1

CYP1A2 = biological target: T5, CYP1A2 (Homo sapiens, UniProt P05177); experiment: Direct inhibition (DI) of CYP1A2 in human liver microsomes; assay type: in vitro ADME; settings: probe Phenacetin, human liver microsomes 0.2 mg/mL, 10 μM compound, read-out: Direct inhibition (DI) 1A2 (Phenacetin)
T5 construct: A system of 100 μL human liver microsomes; from tissue; host or cells: human liver microsomes
T5 sequence (P05177 1-516): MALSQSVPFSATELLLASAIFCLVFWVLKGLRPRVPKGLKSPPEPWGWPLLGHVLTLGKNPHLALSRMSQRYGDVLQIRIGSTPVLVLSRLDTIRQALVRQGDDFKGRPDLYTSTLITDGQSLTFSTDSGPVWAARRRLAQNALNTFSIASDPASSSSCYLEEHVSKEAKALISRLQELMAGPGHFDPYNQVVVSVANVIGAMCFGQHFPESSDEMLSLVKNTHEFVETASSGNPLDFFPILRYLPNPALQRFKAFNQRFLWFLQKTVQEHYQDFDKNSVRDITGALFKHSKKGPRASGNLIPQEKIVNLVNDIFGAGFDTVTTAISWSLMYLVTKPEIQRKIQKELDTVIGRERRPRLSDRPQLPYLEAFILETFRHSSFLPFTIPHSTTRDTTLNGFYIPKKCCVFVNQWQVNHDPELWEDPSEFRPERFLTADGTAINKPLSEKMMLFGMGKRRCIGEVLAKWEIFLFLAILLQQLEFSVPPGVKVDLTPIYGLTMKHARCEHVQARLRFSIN
Summary of the method: as §1

CYP2C19 = biological target: T6, CYP2C19 (Homo sapiens, UniProt P33261); experiment: Direct inhibition (DI) of CYP2C19 in human liver microsomes; assay type: in vitro ADME; settings: probe Mephenytoin, human liver microsomes 0.2 mg/mL, 10 μM compound, read-out: Direct inhibition (DI) 2C19 (Mephenytoin)
T6 construct: A system of 100 μL human liver microsomes; from tissue; host or cells: human liver microsomes
Summary of the method: as §1

[2] = probe Midazolam, read-out: Direct inhibition (DI) 3A4 (Midazolam)
[3] = probe Testosterone, read-out: Direct inhibition (DI) 3A4 (testosterone)

T2 sequence (P08684 whole entry): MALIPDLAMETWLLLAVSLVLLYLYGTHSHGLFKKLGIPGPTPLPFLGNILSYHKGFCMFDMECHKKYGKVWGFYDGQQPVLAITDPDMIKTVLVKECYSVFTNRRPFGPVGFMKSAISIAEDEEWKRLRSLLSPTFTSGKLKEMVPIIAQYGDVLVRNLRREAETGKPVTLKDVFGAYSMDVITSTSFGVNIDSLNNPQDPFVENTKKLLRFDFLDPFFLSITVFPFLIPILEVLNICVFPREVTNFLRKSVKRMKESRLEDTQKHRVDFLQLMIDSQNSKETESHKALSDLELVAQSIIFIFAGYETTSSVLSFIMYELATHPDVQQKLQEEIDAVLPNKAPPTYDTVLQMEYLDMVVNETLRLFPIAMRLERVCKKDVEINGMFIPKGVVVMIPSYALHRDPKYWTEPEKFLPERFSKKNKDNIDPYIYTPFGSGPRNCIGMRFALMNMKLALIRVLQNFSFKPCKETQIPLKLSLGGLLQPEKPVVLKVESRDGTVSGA
T4 sequence (P11712 whole entry): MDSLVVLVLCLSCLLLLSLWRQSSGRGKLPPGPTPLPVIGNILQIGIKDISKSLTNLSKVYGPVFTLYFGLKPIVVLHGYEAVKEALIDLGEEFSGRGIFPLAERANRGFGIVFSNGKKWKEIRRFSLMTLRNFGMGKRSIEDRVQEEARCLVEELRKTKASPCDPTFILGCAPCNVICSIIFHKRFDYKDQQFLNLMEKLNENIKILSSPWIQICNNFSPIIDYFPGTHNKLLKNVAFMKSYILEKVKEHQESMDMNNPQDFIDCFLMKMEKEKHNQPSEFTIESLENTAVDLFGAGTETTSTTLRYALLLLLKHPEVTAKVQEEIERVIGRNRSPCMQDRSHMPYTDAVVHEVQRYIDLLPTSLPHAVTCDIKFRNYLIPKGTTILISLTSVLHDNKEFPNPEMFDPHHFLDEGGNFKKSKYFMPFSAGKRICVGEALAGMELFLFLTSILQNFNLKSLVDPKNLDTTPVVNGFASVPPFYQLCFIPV
EGFR kinase, sequence (P00533 25-1210): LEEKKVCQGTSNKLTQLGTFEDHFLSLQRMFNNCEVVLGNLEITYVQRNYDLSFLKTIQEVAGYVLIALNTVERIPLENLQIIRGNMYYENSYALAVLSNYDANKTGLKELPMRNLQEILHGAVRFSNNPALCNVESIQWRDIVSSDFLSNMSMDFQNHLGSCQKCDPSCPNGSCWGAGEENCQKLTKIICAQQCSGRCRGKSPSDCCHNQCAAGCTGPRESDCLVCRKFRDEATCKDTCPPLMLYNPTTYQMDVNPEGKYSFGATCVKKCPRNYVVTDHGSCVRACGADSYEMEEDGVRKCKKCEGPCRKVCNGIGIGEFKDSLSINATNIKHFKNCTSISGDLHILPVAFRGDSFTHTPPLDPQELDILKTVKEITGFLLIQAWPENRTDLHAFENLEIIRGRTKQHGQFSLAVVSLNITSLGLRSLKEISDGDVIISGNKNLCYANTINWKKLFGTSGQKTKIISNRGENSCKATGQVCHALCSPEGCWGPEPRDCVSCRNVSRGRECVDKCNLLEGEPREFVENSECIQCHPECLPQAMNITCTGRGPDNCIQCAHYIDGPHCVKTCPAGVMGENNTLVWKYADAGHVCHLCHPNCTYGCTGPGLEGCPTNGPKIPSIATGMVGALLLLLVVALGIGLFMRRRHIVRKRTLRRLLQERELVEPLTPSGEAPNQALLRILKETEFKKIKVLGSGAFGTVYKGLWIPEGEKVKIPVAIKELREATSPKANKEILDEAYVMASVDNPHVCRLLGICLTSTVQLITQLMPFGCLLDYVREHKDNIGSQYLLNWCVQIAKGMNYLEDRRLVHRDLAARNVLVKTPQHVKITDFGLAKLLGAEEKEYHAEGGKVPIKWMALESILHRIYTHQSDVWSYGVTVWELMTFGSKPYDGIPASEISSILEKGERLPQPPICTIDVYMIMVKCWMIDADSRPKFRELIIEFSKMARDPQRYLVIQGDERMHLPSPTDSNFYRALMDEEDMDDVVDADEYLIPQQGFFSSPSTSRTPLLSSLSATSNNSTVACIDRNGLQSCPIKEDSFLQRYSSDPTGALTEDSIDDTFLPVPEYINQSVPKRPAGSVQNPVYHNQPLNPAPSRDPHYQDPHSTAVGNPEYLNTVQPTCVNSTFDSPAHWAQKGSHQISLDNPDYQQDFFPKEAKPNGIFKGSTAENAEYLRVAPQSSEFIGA
T6 sequence (P33261 whole entry): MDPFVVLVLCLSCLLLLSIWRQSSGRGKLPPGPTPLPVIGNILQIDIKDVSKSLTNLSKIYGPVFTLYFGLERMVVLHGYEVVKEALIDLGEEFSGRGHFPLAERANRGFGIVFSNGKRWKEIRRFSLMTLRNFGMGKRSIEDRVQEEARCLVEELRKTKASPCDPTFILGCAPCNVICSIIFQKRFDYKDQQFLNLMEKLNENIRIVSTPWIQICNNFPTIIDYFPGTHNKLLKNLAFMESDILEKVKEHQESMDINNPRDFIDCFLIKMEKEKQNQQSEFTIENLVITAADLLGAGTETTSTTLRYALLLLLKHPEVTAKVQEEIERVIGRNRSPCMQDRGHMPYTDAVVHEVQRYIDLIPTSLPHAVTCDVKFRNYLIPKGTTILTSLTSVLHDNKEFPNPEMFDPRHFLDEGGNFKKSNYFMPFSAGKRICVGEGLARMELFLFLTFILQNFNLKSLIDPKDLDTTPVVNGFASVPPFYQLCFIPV
T3 sequence (P10635 whole entry): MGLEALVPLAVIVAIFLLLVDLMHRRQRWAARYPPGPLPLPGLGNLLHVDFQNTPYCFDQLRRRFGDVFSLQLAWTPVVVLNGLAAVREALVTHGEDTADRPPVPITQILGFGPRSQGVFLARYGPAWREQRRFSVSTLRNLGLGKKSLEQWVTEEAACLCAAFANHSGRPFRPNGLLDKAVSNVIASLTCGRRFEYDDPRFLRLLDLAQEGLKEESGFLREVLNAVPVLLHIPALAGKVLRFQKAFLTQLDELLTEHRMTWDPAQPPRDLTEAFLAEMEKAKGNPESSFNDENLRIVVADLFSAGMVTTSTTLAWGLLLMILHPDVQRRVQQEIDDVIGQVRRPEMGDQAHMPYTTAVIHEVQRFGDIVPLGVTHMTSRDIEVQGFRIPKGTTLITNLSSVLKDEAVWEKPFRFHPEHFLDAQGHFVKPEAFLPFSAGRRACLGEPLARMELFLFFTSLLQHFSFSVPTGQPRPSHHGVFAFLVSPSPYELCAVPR
T1 sequence (P04626 23-1255): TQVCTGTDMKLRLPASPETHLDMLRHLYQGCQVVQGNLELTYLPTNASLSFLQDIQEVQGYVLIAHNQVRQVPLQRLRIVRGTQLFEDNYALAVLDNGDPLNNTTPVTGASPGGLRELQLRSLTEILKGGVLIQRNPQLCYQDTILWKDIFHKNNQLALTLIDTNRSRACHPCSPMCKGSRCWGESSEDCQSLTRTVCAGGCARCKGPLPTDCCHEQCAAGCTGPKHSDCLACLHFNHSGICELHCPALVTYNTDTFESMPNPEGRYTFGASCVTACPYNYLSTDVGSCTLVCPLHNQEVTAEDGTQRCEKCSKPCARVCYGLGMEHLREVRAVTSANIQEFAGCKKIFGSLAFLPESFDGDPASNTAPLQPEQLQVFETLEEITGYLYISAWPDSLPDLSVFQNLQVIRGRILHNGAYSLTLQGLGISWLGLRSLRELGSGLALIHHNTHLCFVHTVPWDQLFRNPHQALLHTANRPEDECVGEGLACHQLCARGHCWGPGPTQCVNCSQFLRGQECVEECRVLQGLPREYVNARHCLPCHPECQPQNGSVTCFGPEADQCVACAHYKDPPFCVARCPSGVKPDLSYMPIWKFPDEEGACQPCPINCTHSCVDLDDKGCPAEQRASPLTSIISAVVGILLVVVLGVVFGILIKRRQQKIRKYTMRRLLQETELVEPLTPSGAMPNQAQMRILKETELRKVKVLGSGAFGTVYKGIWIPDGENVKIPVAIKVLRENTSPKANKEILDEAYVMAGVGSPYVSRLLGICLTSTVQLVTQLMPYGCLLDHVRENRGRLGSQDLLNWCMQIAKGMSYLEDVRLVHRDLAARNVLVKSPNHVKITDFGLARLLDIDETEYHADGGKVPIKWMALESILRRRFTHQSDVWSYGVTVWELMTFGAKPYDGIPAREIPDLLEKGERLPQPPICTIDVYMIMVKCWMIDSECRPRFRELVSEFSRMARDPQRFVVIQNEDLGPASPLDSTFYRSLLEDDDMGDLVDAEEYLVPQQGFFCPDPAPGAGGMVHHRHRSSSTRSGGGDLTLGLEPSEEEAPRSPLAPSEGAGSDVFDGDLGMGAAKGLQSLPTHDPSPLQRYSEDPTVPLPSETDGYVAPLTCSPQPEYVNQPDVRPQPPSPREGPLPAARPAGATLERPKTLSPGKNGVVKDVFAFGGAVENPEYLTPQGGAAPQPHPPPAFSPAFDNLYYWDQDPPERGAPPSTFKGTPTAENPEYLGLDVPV

Compound: CCOc1cc2ncnc(Nc3ccc(Oc4ccn5ncnc5c4)c(C)c3)c2cc1NC(=O)/C=C/[C@H]1CCCN1C [Final product of Embodiment 22, (R,E)-N-(4-((4-([1,2,4]triazolo[1,5-a]pyridin-7-yloxy)-3-methylphenyl)amino)-7-ethoxyquinazolin-6-yl)-3-(1-methylpyrrolidin-2-yl)acrylamide]
- IC50 (ErbB2 kinase): 0.37 nM
- IC50 (EGFR kinase): 0.8 nM
- IC50 [1]: 1 nM
- inhibition at 20 min, 10 µM (CYP3A4; [2]): 12%
- inhibition at 20 min, 10 µM (CYP3A4; [3]): 32%
- inhibition at 20 min, 10 µM (CYP2D6): 48%
- inhibition at 20 min, 10 µM (CYP2C9): 10%
- inhibition at 20 min, 10 µM (CYP1A2): 14%
- inhibition at 20 min, 10 µM (CYP2C19): 37%

Compound: CCOc1cc2ncnc(Nc3ccc(Oc4ccn5ncnc5c4)c(C)c3)c2cc1NC(=O)/C(F)=C/[C@H]1CCCN1C [Final product of Embodiment 45]
- IC50 (ErbB2 kinase): 1.8 nM
- IC50 (EGFR kinase): 10.5 nM
- IC50 [1]: 2.1 nM
- inhibition at 20 min, 10 µM (CYP3A4; [2]): 6%
- inhibition at 20 min, 10 µM (CYP3A4; [3]): 24%
- inhibition at 20 min, 10 µM (CYP2D6): 39%
- inhibition at 20 min, 10 µM (CYP2C9): < 0%
- inhibition at 20 min, 10 µM (CYP1A2): 8%
- inhibition at 20 min, 10 µM (CYP2C19): 11%
